One data set deals with T1, ATR/ATRIP (Homo sapiens, UniProt Q13535).
T1 construct: human ATR, full length, GenBank ID: NM_001184.3; p53: Sf21 insect cells
Briefly: ATR/ATRIP kinase assay (TR-FRET, p53 phosphorylation). Format: biochemical. As to conditions: Table 1, class symbols; read-out: ATR-ATRIP IC50.

For data set [1], the target named is T2, Kv11.1 (hERG) ion channel (Homo sapiens, UniProt Q12809).
T2 construct: expressed in transfected cells; host or cells: HEK293
Briefly: Kv11.1 (hERG) ion channel activity, whole cell patch clamp. In kind it is cell-based. As to conditions: for Ki: Table 3, HEK293 hERG patch clamp. The method, then: Kv11.1 (hERG) Ion Channel Activity
In this assay, a potential in vitro effect of test compounds on the Kv11.1 (hERG) ion channel current is investigated which mediates the rapidly activating, delayed rectifier cardiac potassium current (IKr). The assay is performed with a stable Kv11.1 (hERG) transfected human embryonic kidney cell line (HEK293) by whole cell patch clamp technique carried out at room temperature.
The Kv11.1 (hERG) ion channel blocker quinidine is used as reference compound. The effects of the test compounds and quinidine are normalized to the corresponding vehicle control. The whole cell recordings are carried out with an automated patch clamp device Patchliner™, Nanion Technologies, Munich). Hereby the Patch Clamp measurements run on silicate-coated chips with a hole of a defined diameter. Solutions, cell suspension and compounds are applied by a Teflon-laminated pipette needle through microfluidic silicate-laminated channels. Commercial patch clamp amplifiers (EPC10, HEKA Elektronik Dr. Schulze GmbH, Germany) are used for the patch clamp recordings. HEK293 cells stably expressing the hERG gene are held at −80 mV. Steady-state inhibition of Kv11.1 (hERG) potassium current due to test/reference compound application is measured using a pulse pattern with fixed amplitudes: 51 ms/−80 mV, 500 ms/+40 mV, 500 ms/−40 mV, 200 ms/−80 mV. The hERG-specific voltage protocol is repeated at 10 s intervals. The leak current is subtracted by a P4 leak subtraction. Cells are resuspended in extracellular patch clamp solution (EC) and applied into the chip. After trapping the cell, the EC is exchanged by seal enhancer solution (SE) to improve the sealing procedure. When the whole cell configuration is attained, seal enhancer is washed out by the application of EC. The recording is started in EC for 1.5 min. Afterwards DMSO (vehicle control, 0.1% DMSO) is applied and the control current is measured for 3 min. Following control steady-state current, test compound is applied twice at the same concentration and the tail current is measured for 3.5 min each. For the determination of a concentration-relationship, the test compound is applied as a cumulative concentration-response curve and each concentration is measured for 5 min. The reference compound quinidine is treated in the same way. The effect on Kv11.1 (hERG) ion channel activity is judged from the tail current amplitude monitored at −40 mV (current of interest, COI). Results are calculated from the last recorded current traces. Changes in Kv11.1 (hERG) ion channel activity between control value, defined as 100% Kv11.1 (hERG) ion channel activity, application of test compound and application of quinidine is reported as percent change of control value of COI. An aliquot of test compound is collected for concentration verification during the recording. The sample is immediately measured by HPLC and the final compound concentration within the assay is calculated according to a calibration curve.
(In general: The hERG channel carries a current that helps repolarise heart muscle cells.)

Structures are written as SMILES.

The term IC50 denotes the concentration that gives 50% inhibition. The term Ki denotes the dissociation constant of the complex between target and ligand, obtained from inhibition or displacement. Read a high Ki as weaker binding.

T2 sequence (Q12809 whole entry): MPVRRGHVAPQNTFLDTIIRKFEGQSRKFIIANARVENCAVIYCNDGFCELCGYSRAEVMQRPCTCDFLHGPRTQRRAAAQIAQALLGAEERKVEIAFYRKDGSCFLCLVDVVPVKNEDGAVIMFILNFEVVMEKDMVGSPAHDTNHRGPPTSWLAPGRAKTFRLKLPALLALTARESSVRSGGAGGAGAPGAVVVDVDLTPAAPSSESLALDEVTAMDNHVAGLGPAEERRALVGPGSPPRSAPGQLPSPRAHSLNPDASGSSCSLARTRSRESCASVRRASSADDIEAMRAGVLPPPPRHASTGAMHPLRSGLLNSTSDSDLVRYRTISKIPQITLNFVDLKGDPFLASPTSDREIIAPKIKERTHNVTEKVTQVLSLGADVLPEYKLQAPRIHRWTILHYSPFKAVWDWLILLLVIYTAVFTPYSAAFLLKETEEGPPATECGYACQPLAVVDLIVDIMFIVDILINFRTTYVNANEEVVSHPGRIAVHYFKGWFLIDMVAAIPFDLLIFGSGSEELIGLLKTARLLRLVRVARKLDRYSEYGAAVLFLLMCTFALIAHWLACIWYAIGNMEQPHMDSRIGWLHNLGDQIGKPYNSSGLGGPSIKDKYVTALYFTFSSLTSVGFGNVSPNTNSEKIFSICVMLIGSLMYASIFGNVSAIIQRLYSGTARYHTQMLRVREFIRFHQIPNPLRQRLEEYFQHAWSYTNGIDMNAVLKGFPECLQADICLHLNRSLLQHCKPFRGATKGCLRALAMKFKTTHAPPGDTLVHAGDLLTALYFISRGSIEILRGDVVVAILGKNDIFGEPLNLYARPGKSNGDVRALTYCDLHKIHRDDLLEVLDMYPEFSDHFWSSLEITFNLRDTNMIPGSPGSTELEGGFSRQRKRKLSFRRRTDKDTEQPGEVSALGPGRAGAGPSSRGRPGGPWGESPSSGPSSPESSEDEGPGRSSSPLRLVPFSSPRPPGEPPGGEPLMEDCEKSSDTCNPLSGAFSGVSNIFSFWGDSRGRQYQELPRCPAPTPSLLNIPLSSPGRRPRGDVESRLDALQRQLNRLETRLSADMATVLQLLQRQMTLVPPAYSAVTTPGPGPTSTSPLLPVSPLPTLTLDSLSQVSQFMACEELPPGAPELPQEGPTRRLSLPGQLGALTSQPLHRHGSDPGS
T1 sequence (Q13535 whole entry): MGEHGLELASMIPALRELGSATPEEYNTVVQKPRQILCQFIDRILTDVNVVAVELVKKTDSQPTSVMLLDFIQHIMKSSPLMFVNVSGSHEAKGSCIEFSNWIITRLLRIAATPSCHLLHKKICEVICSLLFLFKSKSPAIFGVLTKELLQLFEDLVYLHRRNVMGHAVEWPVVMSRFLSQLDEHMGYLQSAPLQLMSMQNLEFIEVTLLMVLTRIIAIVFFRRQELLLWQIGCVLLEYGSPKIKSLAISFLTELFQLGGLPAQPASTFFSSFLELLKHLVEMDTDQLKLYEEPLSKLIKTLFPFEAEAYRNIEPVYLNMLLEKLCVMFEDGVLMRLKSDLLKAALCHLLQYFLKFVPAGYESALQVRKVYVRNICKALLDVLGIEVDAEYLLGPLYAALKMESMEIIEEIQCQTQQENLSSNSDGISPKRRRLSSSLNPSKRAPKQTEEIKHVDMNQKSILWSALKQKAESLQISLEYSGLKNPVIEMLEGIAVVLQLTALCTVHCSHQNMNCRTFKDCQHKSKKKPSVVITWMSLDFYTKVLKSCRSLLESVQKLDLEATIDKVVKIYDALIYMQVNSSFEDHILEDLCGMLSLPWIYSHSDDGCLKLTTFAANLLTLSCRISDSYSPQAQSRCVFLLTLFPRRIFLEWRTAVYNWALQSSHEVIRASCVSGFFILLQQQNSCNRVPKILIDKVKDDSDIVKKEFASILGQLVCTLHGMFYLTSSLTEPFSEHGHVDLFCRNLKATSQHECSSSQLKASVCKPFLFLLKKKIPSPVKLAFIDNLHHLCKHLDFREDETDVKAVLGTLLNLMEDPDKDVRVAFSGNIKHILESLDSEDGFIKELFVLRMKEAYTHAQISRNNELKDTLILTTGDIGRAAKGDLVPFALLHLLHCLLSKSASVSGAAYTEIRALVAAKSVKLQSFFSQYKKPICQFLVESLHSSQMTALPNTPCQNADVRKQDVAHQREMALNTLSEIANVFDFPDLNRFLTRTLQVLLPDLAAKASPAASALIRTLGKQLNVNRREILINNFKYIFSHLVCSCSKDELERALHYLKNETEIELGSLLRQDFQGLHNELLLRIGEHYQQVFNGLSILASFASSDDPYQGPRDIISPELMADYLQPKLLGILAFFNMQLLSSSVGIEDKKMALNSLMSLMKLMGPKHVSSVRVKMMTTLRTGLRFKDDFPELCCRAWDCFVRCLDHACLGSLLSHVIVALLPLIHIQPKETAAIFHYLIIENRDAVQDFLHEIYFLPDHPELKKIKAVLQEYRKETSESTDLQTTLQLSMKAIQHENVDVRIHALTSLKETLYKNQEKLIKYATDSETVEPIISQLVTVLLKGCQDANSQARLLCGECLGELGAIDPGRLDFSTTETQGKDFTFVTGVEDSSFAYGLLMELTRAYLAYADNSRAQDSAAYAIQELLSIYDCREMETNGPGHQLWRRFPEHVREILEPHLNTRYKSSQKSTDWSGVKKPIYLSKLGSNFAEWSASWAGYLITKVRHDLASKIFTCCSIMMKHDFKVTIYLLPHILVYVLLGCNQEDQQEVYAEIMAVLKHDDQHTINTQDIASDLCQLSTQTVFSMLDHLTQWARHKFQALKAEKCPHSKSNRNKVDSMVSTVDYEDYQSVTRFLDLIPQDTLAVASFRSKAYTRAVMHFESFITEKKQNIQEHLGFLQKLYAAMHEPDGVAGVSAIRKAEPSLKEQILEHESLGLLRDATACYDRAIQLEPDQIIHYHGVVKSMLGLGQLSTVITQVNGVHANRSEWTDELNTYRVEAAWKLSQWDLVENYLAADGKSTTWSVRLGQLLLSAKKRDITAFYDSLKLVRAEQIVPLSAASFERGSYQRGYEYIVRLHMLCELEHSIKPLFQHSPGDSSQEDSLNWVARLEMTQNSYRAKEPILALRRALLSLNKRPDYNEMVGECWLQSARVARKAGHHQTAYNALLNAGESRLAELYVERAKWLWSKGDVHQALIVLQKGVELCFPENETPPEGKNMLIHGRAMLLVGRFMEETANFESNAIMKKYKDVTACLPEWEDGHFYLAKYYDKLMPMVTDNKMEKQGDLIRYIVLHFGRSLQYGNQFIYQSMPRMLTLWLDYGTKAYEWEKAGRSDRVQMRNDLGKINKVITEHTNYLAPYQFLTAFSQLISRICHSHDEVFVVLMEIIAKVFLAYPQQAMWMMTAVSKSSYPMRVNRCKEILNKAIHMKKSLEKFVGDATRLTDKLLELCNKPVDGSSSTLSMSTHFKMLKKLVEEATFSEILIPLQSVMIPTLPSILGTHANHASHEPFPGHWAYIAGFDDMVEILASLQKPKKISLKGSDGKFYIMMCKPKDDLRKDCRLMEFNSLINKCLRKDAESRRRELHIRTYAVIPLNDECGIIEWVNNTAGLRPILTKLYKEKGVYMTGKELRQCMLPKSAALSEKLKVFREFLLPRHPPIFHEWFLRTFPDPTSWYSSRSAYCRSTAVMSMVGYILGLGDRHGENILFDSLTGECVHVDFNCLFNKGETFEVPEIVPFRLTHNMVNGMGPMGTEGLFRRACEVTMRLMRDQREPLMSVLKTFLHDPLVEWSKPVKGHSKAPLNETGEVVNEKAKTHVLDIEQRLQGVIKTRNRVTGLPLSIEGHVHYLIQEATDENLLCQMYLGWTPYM
T1 sequence (Q8WXE1 whole entry partner): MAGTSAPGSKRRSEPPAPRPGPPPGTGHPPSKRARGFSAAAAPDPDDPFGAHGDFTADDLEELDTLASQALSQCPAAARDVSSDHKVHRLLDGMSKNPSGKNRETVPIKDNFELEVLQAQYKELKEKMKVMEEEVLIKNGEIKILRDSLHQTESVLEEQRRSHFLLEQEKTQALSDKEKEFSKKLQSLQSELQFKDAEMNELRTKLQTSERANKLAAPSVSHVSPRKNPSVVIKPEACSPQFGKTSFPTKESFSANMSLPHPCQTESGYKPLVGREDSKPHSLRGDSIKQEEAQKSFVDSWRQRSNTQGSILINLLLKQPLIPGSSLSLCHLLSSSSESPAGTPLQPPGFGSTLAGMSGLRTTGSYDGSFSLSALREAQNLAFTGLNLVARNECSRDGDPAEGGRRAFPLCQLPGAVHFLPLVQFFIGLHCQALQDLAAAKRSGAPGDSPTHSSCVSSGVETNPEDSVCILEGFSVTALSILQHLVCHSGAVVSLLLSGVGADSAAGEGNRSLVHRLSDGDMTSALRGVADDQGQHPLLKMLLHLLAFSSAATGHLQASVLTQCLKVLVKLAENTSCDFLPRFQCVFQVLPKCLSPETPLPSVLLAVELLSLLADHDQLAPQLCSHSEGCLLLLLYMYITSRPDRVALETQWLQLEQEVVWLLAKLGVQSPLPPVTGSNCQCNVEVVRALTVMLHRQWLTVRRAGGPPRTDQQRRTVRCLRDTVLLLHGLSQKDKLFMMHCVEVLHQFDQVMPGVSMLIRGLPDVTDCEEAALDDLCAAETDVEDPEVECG

`C[C@@H]1COC[C@H]2COc3c(nc(-c4c(N)cnc5[nH]ccc45)nc3C(C)(C)S(C)(=O)=O)N21` [A20, 4-[(4bR,8S)-1-(1-Methanesulfonyl-1-methyl-ethyl)-5-methyl-5,6,8a,9-tetrahydro-8H-7,10-dioxa-2,4,4b-triaza-phenanthren-3-yl]-1H-pyrrolo[2,3-b]pyridin-5-ylamine]: the IC50 at ATR/ATRIP is < 0.001 µM. Also, in data set [1] (@ 10 μM), the “hERG % effect @ conc” value is “(−19% effect @ 10 μM)”. Besides, in data set [1], the Ki was > 10 µM.

On to `C[C@@H]1COC[C@H]2COc3c(nc(-c4ccnc5[nH]ccc45)nc3C(C)(C)S(C)(=O)=O)N21` [A13, (6R,8aS)-1-(1-Methanesulfonyl-1-methyl-ethyl)-5-methyl-3-(1H-pyrrolo[2,3-b]pyridin-4-yl)-5,6,8a,9-tetrahydro-8H-7,10-dioxa-2,4,4b-triaza-phenanthrene], for which, on ATR/ATRIP, the IC50 is < 0.001 µM. The “hERG % effect @ conc” value in data set [1] (@ 10 μM) is given as “(−55% effect @ 10 μM)”. The same compound showed a Ki in data set [1] of 6.5 µM.

Take `CNc1cnc2[nH]ccc2c1-c1nc2c(c(C(C)(C)S(C)(=O)=O)n1)OC[C@@H]1COC[C@@H](C)N21` [A1, {4-[(S)-1-(1-Methanesulfonyl-1-methyl-ethyl)-5-(R)-methyl-5,6,8a,9-tetrahydro-8H-7,10-dioxa-2,4,4b-triaza-phenanthren-3-yl]-1H-pyrrolo[2,3-b]pyridin-5-yl}-methyl-amine]: on ATR/ATRIP, the IC50 is < 0.001 µM. The “hERG % effect @ conc” value in data set [1] (@ 30 μM) is recorded as “(−50% @ 30 μM)”. For the same compound, the Ki in data set [1] was > 30 µM.

Source of the values: patent US10570149B2, “Tricyclic heterocylic derivatives” (MERCK PATENT GMBH, priority 2016, dated 2020).
